Test system: Hepatitis B Virus (HBV)
Experiment: Serum HBV DNA levels in pHBV model mice (qPCR)
Assay type: in vivo
Settings: single s.c. injection day 1, Example 7
Text: Six to eight-week-old female NOD.CB17-Prkdscid/NcrCrl (NOD-SCID) mice were transiently transfected in vivo with MC-HBV1.3 by hydrodynamic tail vein injection (Yang P L et al. “Hydrodynamic injection of viral DNA: a mouse model of acute hepatitis B virus infection,” PNAS USA 2002 Vol. 99: p. 13825-13830), administered 30 to 45 days prior to administration of an HBV RNAi agent or control. MC-HBV1.3 is a plasmid-derived minicircle that contains the same terminally redundant human hepatitis B virus sequence HBV1.3 as in plasmid pHBV1.3 and in the HBV1.3.32 transgenic mice (GenBank accession #V01460) (Guidotti L G et al., “High-level hepatitis B virus replication in transgenic mice,” J Virol 1995 Vol. 69, p 6158-6169.). 5 or 10 μg MC-HBV1.3 in Ringer's Solution in a total volume of 10% of the animal's body weight was injected into mice via tail vein to create pHBV model of chronic HBV infection. The solution was injected through a 27-gauge needle in 5-7 seconds as previously described (Zhang G et al., “High levels of foreign gene expression in hepatocytes after tail vein injection of naked plasmid DNA.” Human Gene Therapy 1999 Vol. 10, p 1735-1737.). At pre-dose (either day 1 pre-dose, day −1, or day −2), Hepatitis B surface antigen (HBsAg) HBsAg expression levels in serum were measured by ELISA and the mice were grouped according to average HBsAg expression levels.
HBV expression levels were normalized to pre-administration expression levels and to control mice injected with phosphate buffered saline (“PBS”).
Equal volumes of serum from mice in a group or subgroup were pooled to a final volume of 100 μL. DNA was isolated from serum samples using the QIAamp MinElute Virus Spin Kit (Qiagen, Valencia, Calif.) following the manufacturer's instructions. Sterile 0.9% saline was added to each sample to a final volume of 200 μL. Serum samples were added to tubes containing buffer and protease. Carrier RNA was added to aid in the isolation of small amounts of DNA. […] After incubating 15 min at 56° C., nucleic acids were precipitated from the lysates with ethanol and the entire solution applied to a column. After washing, the samples were eluted into a volume of 50 μL Buffer AVE.
The number of copies of HBV genomes in DNA isolated from the pHBV mouse model serum was determined by qPCR. Plasmid pSEAP-HBV353-777, encoding a short segment of the HBV genome within the S gene (bases 353-777 of GenBank accession #V01460), was used to create a six log standard curve. Samples with recovery of DNA below 2 standard deviations from the average, based on detection of pHCR/UbC-SEAP were omitted. TaqMan chemistry-based primers and probes with fluor/ZEN/IBFQ are utilized.
qPCR assays were performed on a 7500 Fast or StepOne Plus Real-Time PCR system (Life Technologies). For evaluation of HBV DNA in serum, DNA was isolated from singlet or duplicate purification steps from pooled group serum samples. Quantitations of HBV DNA and recovery control plasmid were determined by qPCR reactions performed in triplicate. The probes to quantitate HBV and pHCR/UbC-SEAP were included in each reaction.

Substance | Average Serum HBV DNA levels normalized to pre-treatment and PBS control (Day 8, 1.0 mg/kg) | Average Serum HBV DNA levels normalized to pre-treatment and PBS control (Day 8, 2.0 mg/kg) | Average Serum HBV DNA levels normalized to pre-treatment and PBS control (Day 15, 1.0 mg/kg) | Average Serum HBV DNA levels normalized to pre-treatment and PBS control (Day 15, 2.0 mg/kg) | Average Serum HBV DNA levels normalized to pre-treatment and PBS control (Day 22, 1.0 mg/kg) | Average Serum HBV DNA levels normalized to pre-treatment and PBS control (Day 22, 2.0 mg/kg) | Average Serum HBV DNA levels normalized to pre-treatment and PBS control (Day 29, 1.0 mg/kg) | Average Serum HBV DNA levels normalized to pre-treatment and PBS control (Day 29, 2.0 mg/kg) | Average Serum HBV DNA levels normalized to pre-treatment and PBS control (Day 36, 1.0 mg/kg) | Average Serum HBV DNA levels normalized to pre-treatment and PBS control (Day 36, 2.0 mg/kg) | Average Serum HBV DNA levels normalized to pre-treatment and PBS control (Day 8, 4.0 mg/kg) | Average Serum HBV DNA levels normalized to pre-treatment and PBS control (Day 15, 4.0 mg/kg) | Average Serum HBV DNA levels normalized to pre-treatment and PBS control (Day 22, 4.0 mg/kg) | Average Serum HBV DNA levels normalized to pre-treatment and PBS control (Day 29, 4.0 mg/kg) | Average Serum HBV DNA levels normalized to pre-treatment and PBS control (Day 36, 4.0 mg/kg)
AD04982: HBV RNAi agent duplex AM06464-AS/AM06150-SS (antisense UACCAAUUUAUGCCUACAGCC; sense GGCUGUAGGCAUAAAUUGGUA; chemistry not fully specified) | 0.358 ± 0.207 | 0.516 ± 0.163 | 0.428 ± 0.073 | 0.523 ± 0.264 | 0.433 ± 0.220 | 0.244 ± 0.123 | 0.474 ± 0.090 | 0.241 ± 0.085 | 0.509 ± 0.163 | 0.543 ± 0.079 |  |  |  |  | 
AD04776: HBV RNAi agent duplex AM05850-AS/AM06150-SS (antisense UACCAAUUUAUGCCUACAGCC; sense GGCUGUAGGCAUAAAUUGGUA; chemistry not fully specified) | 0.601 ± 0.388 | 0.363 ± 0.128 | 0.319 ± 0.125 | 0.374 ± 0.197 | 0.279 ± 0.138 | 0.275 ± 0.146 | 0.506 ± 0.525 | 0.385 ± 0.141 | 0.444 ± 0.407 | 0.721 ± 0.043 | 0.224 ± 0.150 | 0.263 ± 0.185 | 0.335 ± 0.204 | 0.449 ± 0.108 | 0.603 ± 0.068
